According to the supplement of paper PMC10627819:

How the values were obtained:
S. aureus DSM 20231 [1] = test: fitness (endpoint OD595 vs no drug) (fraction); higher = more growth
Procedure, shortened: (§1)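 In 384-well plates at 37 °C, cultures began at OD595 0.01 in 30 µl, with 55 µl used for S. pneumoniae. OD595 readings every 30 min for 14 h were corrected by the first reading. Fitness divides the stationary-phase transition optical density by the robust mean of no-drug control wells. The result is capped at 1.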

S. aureus Newman [2] = test: as above; conditions: main component drawn
Procedure, shortened: as §1

B. subtilis 168 [3] = test: Bliss interaction score (quartile over a dose matrix) (fitness difference); higher = more antagonism (negative = synergy)
Procedure, shortened: (§2)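 The Bliss score is observed minus expected fitness, where expected fitness is the product of the single-drug fitness values inferred from the combination data. Fitness is the OD595 at the onset of stationary phase over the plate's robust no-drug mean, capped at 1. Scores are summarised by quartiles over technical, biological and donor/recipient replicates.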

S. pneumoniae D39V = test: as above
Procedure, shortened: as §2

S. aureus DSM 20231 [4] = test: as above
Procedure, shortened: as §2

S. aureus Newman [5] = test: as above
Procedure, shortened: as §2

B. subtilis 168 [6] = test: fitness (endpoint OD595 vs no drug) (fraction); higher = more growth
Procedure, shortened: as §1
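Throughout, for Bliss interaction score (quartile over a dose matrix): first quartile when negative (synergy) and third quartile when positive (antagonism).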
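Throughout, for fitness (endpoint OD595 vs no drug): OD595 on entry to stationary phase over no-drug wells; at most 1.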

Cn1c2cccc(=O)c-2nc2ccccc21 [Pyocyanin] + CCCCCCCCCC(=O)N[C@@H]1[C@H]([C@@H]([C@H](O[C@H]1OC2=C3C=C4C=C2OC5=C(C=C(C=C5)[C@H]([C@H]6C(=O)N[C@@H](C7=C(C(=CC(=C7)O)OC8[C@H]([C@H]([C@@H]([C@H](O8)CO)O)O)O)C9=C(C=CC(=C9)[C@H](C(=O)N6)NC(=O)[C@@H]4NC(=O)[C@@H]1C2=CC(=CC(=C2)OC2=C(C=CC(=C2)[C@H](C(=O)N[C@H](CC2=CC(=C(O3)C=C2)Cl)C(=O)N1)N)O)O)O)C(=O)O)O[C@H]1[C@@H]([C@H]([C@@H]([C@H](O1)CO)O)O)NC(=O)C)Cl)CO)O)O [Teicoplanin]
fitness
Conditions	first compound 1.25 µg/mL	first compound 2.5 µg/mL	first compound 5 µg/mL
S. aureus DSM 20231 [1], partner 0.1562 µg/mL, main component drawn	0.99	0.906	0.619
S. aureus DSM 20231 [1], partner 0.3125 µg/mL, main component drawn	≥ 1	0.962	0.647
S. aureus DSM 20231 [1], partner 0.625 µg/mL, main component drawn	≥ 1	≥ 1	0.691
S. aureus Newman [2], partner 0.62 µg/mL, one replicate	0.72	0.696	0.473
S. aureus Newman [2], partner 1.24 µg/mL, one replicate	0.698	0.558	0.238
S. aureus Newman [2], partner 2.48 µg/mL, one replicate	0.328	0.14	0.072

fitness, S. aureus Newman [2]
Conditions	first compound 1.25 µg/mL	first compound 2.5 µg/mL	first compound 5 µg/mL
partner 0.1562 µg/mL	0.958	0.805	0.372
partner 0.3125 µg/mL	0.891	0.769	0.35
partner 0.625 µg/mL	0.708	0.54	0.247

main component drawn
Conditions	Bliss interaction score
B. subtilis 168 [3]	-0.0698
S. aureus DSM 20231 [4]	0.0554
S. aureus Newman [5]	-0.114
S. pneumoniae D39V	0.0954

Cn1c2cccc(=O)c-2nc2ccccc21 [Pyocyanin] + COc1cc(Cc2cnc(N)nc2N)cc(OC)c1OC [Trimethoprim]
fitness, one replicate
Conditions	partner 0.1 µg/mL	partner 0.125 µg/mL	partner 0.2 µg/mL	partner 0.4 µg/mL	partner 1 µg/mL	partner 2 µg/mL
B. subtilis 168 [6], first compound 1.25 µg/mL	0.744	0.7	0.672	0.502	0.354	0.3
B. subtilis 168 [6], first compound 2.5 µg/mL	0.758	0.598	0.669	0.414	0.297	0.273
B. subtilis 168 [6], first compound 5 µg/mL	0.501	0.563	0.429	0.242	0.191	0.211
S. aureus DSM 20231 [1], first compound 1.25 µg/mL	–	0.659	–	–	–	–
S. aureus DSM 20231 [1], first compound 2.5 µg/mL	–	0.738	–	–	–	–
S. aureus DSM 20231 [1], first compound 5 µg/mL	–	0.577	–	–	–	–

fitness
Conditions	first compound 1.25 µg/mL	first compound 2.5 µg/mL	first compound 5 µg/mL
B. subtilis 168 [6], partner 0.25 µg/mL	0.653	0.594	–
B. subtilis 168 [6], partner 0.5 µg/mL	0.521	0.439	0.35
S. aureus DSM 20231 [1], partner 0.25 µg/mL	0.553	0.555	0.5
S. aureus DSM 20231 [1], partner 0.5 µg/mL	0.316	0.497	0.442
S. aureus DSM 20231 [1], partner 1 µg/mL	0.0451	0.053	0.0904

Conditions	Bliss interaction score
B. subtilis 168 [3]	0.0421
S. aureus DSM 20231 [4]	0.163
S. aureus Newman [5]	0.123
S. pneumoniae D39V	0.117

CN(N=O)C(=O)N[C@@H](C=O)[C@@H](O)[C@H](O)[C@H](O)CO [Streptozotocin] + CCCCCCCCCC(=O)N[C@@H]1[C@H]([C@@H]([C@H](O[C@H]1OC2=C3C=C4C=C2OC5=C(C=C(C=C5)[C@H]([C@H]6C(=O)N[C@@H](C7=C(C(=CC(=C7)O)OC8[C@H]([C@H]([C@@H]([C@H](O8)CO)O)O)O)C9=C(C=CC(=C9)[C@H](C(=O)N6)NC(=O)[C@@H]4NC(=O)[C@@H]1C2=CC(=CC(=C2)OC2=C(C=CC(=C2)[C@H](C(=O)N[C@H](CC2=CC(=C(O3)C=C2)Cl)C(=O)N1)N)O)O)O)C(=O)O)O[C@H]1[C@@H]([C@H]([C@@H]([C@H](O1)CO)O)O)NC(=O)C)Cl)CO)O)O [Teicoplanin]
fitness
Conditions	first compound 0.15 µg/mL	first compound 0.3 µg/mL	first compound 0.6 µg/mL
S. aureus DSM 20231 [1], partner 0.1562 µg/mL, main component drawn	0.801	0.799	0.66
S. aureus DSM 20231 [1], partner 0.3125 µg/mL, main component drawn	0.935	0.91	0.713
S. aureus DSM 20231 [1], partner 0.625 µg/mL, main component drawn	≥ 1	0.937	0.787
S. aureus Newman [2], partner 0.62 µg/mL, one replicate	0.661	0.47	0.181
S. aureus Newman [2], partner 1.24 µg/mL, one replicate	0.578	0.259	0.0236
S. aureus Newman [2], partner 2.48 µg/mL, one replicate	0.363	0.0725	0.055

fitness, S. aureus Newman [2]
Conditions	first compound 0.15 µg/mL	first compound 0.3 µg/mL	first compound 0.6 µg/mL
partner 0.1562 µg/mL	0.874	0.724	0.493
partner 0.3125 µg/mL	0.762	0.656	0.368
partner 0.625 µg/mL	0.632	0.534	0.177

main component drawn
Conditions	Bliss interaction score
B. subtilis 168 [3]	0.154
S. aureus DSM 20231 [4]	0.097
S. aureus Newman [5]	-0.166
S. pneumoniae D39V	-0.0829

CN(N=O)C(=O)N[C@@H](C=O)[C@@H](O)[C@H](O)[C@H](O)CO [Streptozotocin] + COc1cc(Cc2cnc(N)nc2N)cc(OC)c1OC [Trimethoprim]
fitness, one replicate
Conditions	first compound 0.15 µg/mL	first compound 0.3 µg/mL	first compound 0.6 µg/mL
B. subtilis 168 [6], partner 0.1 µg/mL	0.903	0.871	0.9
B. subtilis 168 [6], partner 0.125 µg/mL	0.748	0.728	0.731
B. subtilis 168 [6], partner 0.2 µg/mL	0.758	0.703	0.805
B. subtilis 168 [6], partner 0.4 µg/mL	0.523	0.536	0.521
S. aureus DSM 20231 [1], partner 0.125 µg/mL	0.645	0.666	0.602

fitness
Conditions	first compound 0.15 µg/mL	first compound 0.3 µg/mL	first compound 0.6 µg/mL
B. subtilis 168 [6], partner 0.5 µg/mL	0.51	0.496	0.501
S. aureus DSM 20231 [1], partner 0.25 µg/mL	0.549	0.557	0.493
S. aureus DSM 20231 [1], partner 0.5 µg/mL	0.0352	0.0171	0.0159
S. aureus DSM 20231 [1], partner 1 µg/mL	0.0265	0.0265	0.0187

Conditions	Bliss interaction score
B. subtilis 168 [3]	0.062
S. aureus DSM 20231 [4]	-0.0675
S. aureus Newman [5]	-0.12
S. pneumoniae D39V	-0.125

Cc1cc(NS(=O)(=O)c2ccc(N)cc2)no1 [Sulfamethoxazol] + CCCCCCCCCC(=O)N[C@@H]1[C@H]([C@@H]([C@H](O[C@H]1OC2=C3C=C4C=C2OC5=C(C=C(C=C5)[C@H]([C@H]6C(=O)N[C@@H](C7=C(C(=CC(=C7)O)OC8[C@H]([C@H]([C@@H]([C@H](O8)CO)O)O)O)C9=C(C=CC(=C9)[C@H](C(=O)N6)NC(=O)[C@@H]4NC(=O)[C@@H]1C2=CC(=CC(=C2)OC2=C(C=CC(=C2)[C@H](C(=O)N[C@H](CC2=CC(=C(O3)C=C2)Cl)C(=O)N1)N)O)O)O)C(=O)O)O[C@H]1[C@@H]([C@H]([C@@H]([C@H](O1)CO)O)O)NC(=O)C)Cl)CO)O)O [Teicoplanin]
fitness
Conditions	partner 0.1562 µg/mL	partner 0.3125 µg/mL	partner 0.62 µg/mL	partner 0.625 µg/mL	partner 1.24 µg/mL	partner 2.48 µg/mL
S. aureus DSM 20231 [1], first compound 1 µg/mL, main component drawn	0.941	≥ 1	–	≥ 1	–	–
S. aureus DSM 20231 [1], first compound 2 µg/mL, main component drawn	≥ 1	≥ 1	–	≥ 1	–	–
S. aureus DSM 20231 [1], first compound 4 µg/mL, main component drawn	0.965	0.991	–	≥ 1	–	–
S. aureus Newman [2], first compound 1 µg/mL, one replicate	–	–	0.805	–	0.726	0.397
S. aureus Newman [2], first compound 2 µg/mL, one replicate	–	–	0.861	–	0.712	0.387
S. aureus Newman [2], first compound 4 µg/mL, one replicate	–	–	0.788	–	0.724	0.425
S. aureus Newman [2], first compound 8 µg/mL, one replicate	0.963	0.866	–	0.997	–	–

fitness, S. aureus Newman [2]
Conditions	first compound 1 µg/mL	first compound 2 µg/mL	first compound 4 µg/mL
partner 0.1562 µg/mL	≥ 1	≥ 1	≥ 1
partner 0.3125 µg/mL	≥ 1	0.995	0.984
partner 0.625 µg/mL	≥ 1	≥ 1	0.862

main component drawn
Conditions	Bliss interaction score
B. subtilis 168 [3]	0.0811
S. aureus DSM 20231 [4]	0.0373
S. aureus Newman [5]	0.0326
S. pneumoniae D39V	-0.0733

Cc1cc(NS(=O)(=O)c2ccc(N)cc2)no1 [Sulfamethoxazol] + COc1cc(Cc2cnc(N)nc2N)cc(OC)c1OC [Trimethoprim]
fitness, one replicate
Conditions	first compound 0.5 µg/mL	first compound 1 µg/mL	first compound 2 µg/mL	first compound 4 µg/mL
B. subtilis 168 [6], partner 0.1 µg/mL	–	0.607	0.473	0.373
B. subtilis 168 [6], partner 0.125 µg/mL	0.481	–	–	0.285
B. subtilis 168 [6], partner 0.2 µg/mL	–	0.489	0.374	0.353
B. subtilis 168 [6], partner 0.25 µg/mL	0.389	–	–	–
B. subtilis 168 [6], partner 0.4 µg/mL	–	0.343	0.318	0.352
B. subtilis 168 [6], partner 0.5 µg/mL	0.299	–	–	–
B. subtilis 168 [6], partner 1 µg/mL	–	0.37	0.245	0.226
B. subtilis 168 [6], partner 2 µg/mL	–	0.323	0.163	0.109
S. aureus DSM 20231 [1], partner 0.125 µg/mL	–	0.534	0.22	0.041

fitness
Conditions	first compound 1 µg/mL	first compound 2 µg/mL	first compound 4 µg/mL
B. subtilis 168 [6], partner 0.125 µg/mL	0.375	0.305	–
B. subtilis 168 [6], partner 0.25 µg/mL	0.351	0.376	–
B. subtilis 168 [6], partner 0.5 µg/mL	0.35	0.337	0.288
S. aureus DSM 20231 [1], partner 0.25 µg/mL	0.0669	0.0417	0.023
S. aureus DSM 20231 [1], partner 0.5 µg/mL	0.015	0.0145	0.0126
S. aureus DSM 20231 [1], partner 1 µg/mL	0.0332	0.0147	0.013

Conditions	Bliss interaction score
B. subtilis 168 [3]	-0.173
S. aureus DSM 20231 [4]	-0.481
S. aureus Newman [5]	0.0676
S. pneumoniae D39V	-0.364
